In ChEMBL document CHEMBL3097995, “NAD-based inhibitors with anticancer potential” (Bioorg Med Chem Lett, 2014):

Assays:
[1] = molecular target: Inosine-5'-monophosphate dehydrogenase 1 (Homo sapiens, UniProt P20839); experiment: Inhibition of IMPDH1 (unknown origin)
K562 = experiment: Antiproliferative activity against human K562 cells; type: functional, cell-based
[2] = molecular target: Inosine-5'-monophosphate dehydrogenase 2 (Homo sapiens, UniProt P12268); experiment: Inhibition of IMPDH2 (unknown origin)
HT-29 = experiment: Antiproliferative activity against human HT-29 cells; type: functional, cell-based
Homo sapiens = species on record: Homo sapiens; experiment: Selectivity ratio of Ki for IMPDH2 (unknown origin) to Ki for IMPDH1 (unknown origin)
HeLa = experiment: Antiproliferative activity against human HeLa cells; type: functional, cell-based
PC-3 = experiment: Antiproliferative activity against human PC3 cells; type: functional, cell-based
HL-60 = experiment: Antiproliferative activity against human HL60 cells; type: functional, cell-based
[3] = Drug degradation in human plasma after 24 hrs; type: ADME, cell-free; conditions: read-out: Drug degradation
DU-145 = experiment: Antiproliferative activity against human DU145 cells; type: functional, cell-based
[4] = Binding affinity to human IMPDH

Chain of Inosine-5'-monophosphate dehydrogenase 1 (P20839 whole entry): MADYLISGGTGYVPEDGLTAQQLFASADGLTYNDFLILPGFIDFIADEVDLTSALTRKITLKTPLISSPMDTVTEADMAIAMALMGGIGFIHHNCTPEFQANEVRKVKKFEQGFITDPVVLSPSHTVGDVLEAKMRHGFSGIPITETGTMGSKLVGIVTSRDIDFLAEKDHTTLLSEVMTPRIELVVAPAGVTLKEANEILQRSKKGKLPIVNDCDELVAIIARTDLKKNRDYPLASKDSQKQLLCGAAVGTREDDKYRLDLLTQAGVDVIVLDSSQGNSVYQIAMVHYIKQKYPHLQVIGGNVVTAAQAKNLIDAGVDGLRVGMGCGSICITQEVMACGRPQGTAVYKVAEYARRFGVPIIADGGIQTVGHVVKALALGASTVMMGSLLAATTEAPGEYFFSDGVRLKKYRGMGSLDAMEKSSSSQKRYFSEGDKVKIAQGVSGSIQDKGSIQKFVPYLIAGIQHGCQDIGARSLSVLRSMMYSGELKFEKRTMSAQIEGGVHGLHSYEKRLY

Row | Ki [1] [µM] | IC50 (K562) [µM] | Ki [2] [µM] | IC50 (HT-29) [µM] | Ratio Ki (Homo sapiens) | IC50 (HeLa) [µM] | IC50 (PC-3) [µM] | IC50 (HL-60) [µM] | metabolised at 24 h [3] [%] | IC50 (DU-145) [µM] | Ki [4] [µM] | Structure (SMILES)
1 | 0.0006 | 0.4 | 0.014 | 2 | 23 | 1 | – | – | – | – | – | COc1c(C)c2c(c(O)c1CCOP(=O)(O)CP(=O)(O)OC[C@H]1O[C@@H](n3cnc4c(N)nc(-c5ccncc5)nc43)[C@H](O)[C@@H]1O)C(=O)OC2
2 | 0.163 | 0.5 | 0.102 | – | – | – | 20 | 9.3 | 20 | 5.8 | – | COc1c(C)c2c(c(O)c1C/C=C(\C)CCC(=O)OC[C@H]1O[C@@H](n3cnc4c(N)ncnc43)[C@H](O)[C@@H]1O)C(=O)OC2
3 | – | – | – | – | – | – | – | – | – | – | 0.01 | COc1c(C)c2c(c(O)c1C/C=C(\C)CCC(=O)O)C(=O)OC2 [MYCOPHENOLIC ACID]
